Source: patent publication US20250195490A1, “ALPHA-METHYLENE AND AMINOMETHYL LACTONES AND LACTAMS FOR TREATMENT OF CLOSTRIDIOIDES DIFFICILE INFECTION (CDI)” (Purdue Research Foundation, priority 2022, published 2025)
In brackets after ≈: the same amount, converted by molar mass.

Columns and labels:
[1] = test system: clinically important Clostridioides difficile strains; assay: MIC against clinically important Clostridioides difficile strains; format: cell-based
Procedure: (§1) The antibacterial activity of compounds 48, 50, 51, 61 and 85 against a panel of Clostridioides difficile strains was evaluated. A bacterial solution equivalent to 0.5 McFarland standard was prepared and diluted in brain heart infusion broth supplemented with hemin and vitamin K. Compounds and control drugs were added in the first row of 96-well plates and serially diluted with media containing bacteria (to achieve a concentration gradient ranging from 128 to 1 μg/mL). Plates were then incubated anaerobically at […] for 48 hours.

C. albicans = assay: Broth microdilution against Candida albicans; format: cell-based; details: gradient 128 to 1 μg/mL, 24 hours
Procedure: (§2) Method: The minimum inhibitory concentration (MIC) of the compounds and control drugs, linezolid (antibiotic), vancomycin (antibiotic), 5-fluorocytosine (5-FC, antifungal drug), and fluconazole (antifungal drug) was determined using the broth microdilution method according to the guidelines outlined by the Clinical and Laboratory Standards Institute (CLSI) against clinically relevant bacterial (methicillin-resistant Staphylococcus aureus (MRSA), vancomycin-resistant Enterococcus faecalis (VRE), vancomycin-resistant Enterococcus faecium (VRE), Clostridioides difficile and Escherichia coli) and fungal (Candida albicans) strains. A solution equivalent to 0.5 McFarland standard was prepared from each strain and diluted in cation-adjusted Mueller-Hinton broth (for S. aureus and E. coli), tryptone soy broth (for E. faecalis), or brain heart infusion broth (for E. faecium) to achieve a bacterial inoculum of about 5×10^5 CFU/mL. C. difficile strains were cultured in brain heart infusion broth supplemented with hemin and vitamin K. C. albicans was diluted in RPMI medium supplemented with 3-(N-morpholino) propanesulfonic acid to achieve a fungal concentration of about 1.5×10^3 CFU/mL. Compounds and control drugs were added in the first row of the 96-well plates and diluted with media containing bacteria (to achieve a concentration gradient ranging from 128 to 1 μg/mL). For MRSA, VRE, and E. coli strains, plates were then incubated aerobically at 37° C. for at least 18 hours. C. albicans was incubated aerobically at 37° C. for 24 hours. Plates containing C. difficile were incubated anaerobically at […] for 48 hours.

Ba. fragilis = assay: MIC against human normal gut microbiota: Bacteroides fragilis; format: cell-based
Source text: (§3) The activity of the selected lactones against the human gut microbiota was also examined. Microbiota interfere with C. difficile's ability to colonize the gastrointestinal tract and subsequently cause infection. Many antibiotics inhibit/kill the endogenous microflora, which permits enhanced colonization by C. difficile and infection. Three different bacterial species that are present in the gut microflora were used in this experiment; Bifidobacterium (anaerobic Gram-positive bacteria), Bacteroides (anaerobic Gram-negative bacteria) and Lactobacillus (microaerophilic Gram-positive bacteria). Ideal compounds/drugs are those with selective antibacterial activity against C. difficile so as to protect the indigenous microflora present in the GI tract from being damaged/killed (which will exacerbate infections caused by C. difficile).
(§4) Bifidobacterium and Bacteroides were first grown for 48 hours at 37° C., anaerobically, using brain heart infusion supplemented (BHIS) agar (brain heart infusion agar supplemented with hemin, vitamin K and L-cysteine). Lactobacillus was cultivated on MRS agar and incubated in the presence of 5% CO2 for 48 hours at 37° C. Each bacterium was suspended in phosphate-buffered saline (PBS) to achieve 0.5 McFarland standard and subsequently diluted in brain heart infusion supplemented broth (for Bifidobacterium and Bacteroides) or in MRS broth (for Lactobacillus) to achieve a bacterial inoculum of approximately 5×10^5 CFU/mL. Bacteria were then seeded in 96-well plates containing serial dilutions of the compounds and incubated for 48 hours. MICs reported in Table 4 are the minimum concentration of compound/control drug that inhibited the visual growth of bacteria.

L. gasseri = assay: MIC against human normal gut microbiota: L. gasseri; format: cell-based, Lactobacillus gasseri; details: L. gasseri HM 407
Source text: as §3, §4

L. reuteri = assay: MIC against human normal gut microbiota: L. reuteri; format: cell-based, Lactobacillus reuteri; details: L. reuteri HM 120
Source text: as §3, §4

Bi. breve = assay: MIC against human normal gut microbiota: Bifidobacterium breve; format: cell-based; details: Bi. breve HM 856
Source text: as §3, §4

Bi. longum = assay: MIC against human normal gut microbiota: Bifidobacterium longum; format: cell-based; details: Bi. longum HM 848
Source text: as §3, §4

L. casei = assay: MIC against human normal gut microbiota: L. casei; format: cell-based, Lactobacillus casei; details: L. casei HM 334
Source text: as §3, §4

E. faecium = assay: Broth microdilution against vancomycin-resistant E. faecium; format: cell-based, Enterococcus faecium; details: gradient 128 to 1 μg/mL
Procedure: as §2

L. crispatus = assay: MIC against human normal gut microbiota: L. crispatus; format: cell-based, Lactobacillus crispatus
Source text: as §3, §4

E. faecalis (VRE) = assay: microbe, parasite or virus in culture; format: cell-based, Enterococcus faecalis; details: aerobic, 37° C., at least 18 hours
Procedure: as §2

Ba. dorsei = assay: MIC against human normal gut microbiota: Bacteroides dorsei; format: cell-based
Source text: as §3, §4

Clostridioides difficile = assay: MIC by broth microdilution against Clostridioides difficile (Table 1); format: cell-based; details: anaerobic, 48 hours; strain BAA-1870
Procedure: as §2

MRSA (USA300) = assay: microbe, parasite or virus in culture; format: cell-based, Staphylococcus aureus; details: aerobic, 37° C., at least 18 hours
Procedure: as §2

[2] = test system: hypervirulent Clostridioides difficile strains; assay: MIC against hypervirulent Clostridioides difficile strains; format: cell-based
Procedure: as §1

E. coli (TolC mutant) = assay: MIC by broth microdilution against E. coli (TolC mutant); format: cell-based, Escherichia coli; details: aerobic, 37° C., at least 18 hours
Procedure: as §2

Row | SMILES | MIC ([1]; CD strain 16) [µg/mL] | MIC ([1]; CD strain 18) [µg/mL] | MIC ([1]; CD strain 19) [µg/mL] | MIC ([1]; CD strain 1801) [µg/mL] | MIC ([1]; CD strain 43255) [µg/mL] | MIC ([1]; CD strain P6) [µg/mL] | MIC ([1]; CD strain P7) [µg/mL] | MIC ([1]; CD strain P13) [µg/mL] | MIC ([1]; CD strain P19) [µg/mL] | activity against C. albicans (C. albicans) | MIC (Ba. fragilis; Ba. fragilis HM 709) [µg/mL] | MIC (Ba. fragilis; Ba. fragilis HM 710) [µg/mL] | MIC (Ba. fragilis; Ba. fragilis HM 711) [µg/mL] | MIC (Ba. fragilis; Ba. fragilis HM 714) [µg/mL] | MIC (L. gasseri) [µg/mL] | MIC (L. reuteri) [µg/mL] | MIC (Bi. breve) [µg/mL] | MIC (Bi. longum) [µg/mL] | MIC (L. casei) [µg/mL] | inhibition of the tested strains of E. faecium (E. faecium) | other results
1 | C=C1C(=O)O[C@H](c2c(OC)cc(OC)cc2OC)[C@@H]1c1ccc(C(F)(F)F)cc1 (racemic) [Compound 61] | 16 (≈ 39.2 µM) | 2 (≈ 4.9 µM) | 8 (≈ 19.6 µM) | 16 (≈ 39.2 µM) | 4 (≈ 9.79 µM) | 8 (≈ 19.6 µM) | 8 (≈ 19.6 µM) | 8 (≈ 19.6 µM) | 8 (≈ 19.6 µM) | inactive | >128 | >128 | >128 | >128 | >128 | >128 | >128 | >128 | >128 | did not inhibit | MIC (L. crispatus; L. crispatus HM 375): >128 µg/mL; MIC (L. crispatus; L. crispatus HM 421): >128 µg/mL; MIC E. faecalis (VRE) (E. faecalis (VRE)): >128 µg/mL; MIC (Ba. dorsei; Ba. dorsei HM 29): >128 µg/mL; MIC (Ba. dorsei; Ba. dorsei HM 717): >128 µg/mL; MIC Clostridioides difficile (Clostridioides difficile): 8 µg/mL (≈ 19.6 µM); MIC MRSA (USA300) (MRSA (USA300)): >128 µg/mL; MIC ([2]; CD strain 81): 16 µg/mL (≈ 39.2 µM); MIC ([2]; CD strain 82): 16 µg/mL (≈ 39.2 µM); MIC ([2]; CD strain 83): 64 µg/mL (≈ 157 µM); MIC ([2]; CD strain 84): 64 µg/mL (≈ 157 µM); MIC ([2]; CD strain 85): 64 µg/mL (≈ 157 µM); MIC ([2]; CD strain 86): 32 µg/mL (≈ 78.4 µM); MIC ([2]; CD strain 87): 8 µg/mL (≈ 19.6 µM); MIC ([2]; CD strain 90): 16 µg/mL (≈ 39.2 µM); MIC ([2]; CD strain 49279): 64 µg/mL (≈ 157 µM); MIC ([2]; CD strain 49287): 8 µg/mL (≈ 19.6 µM); MIC ([2]; CD strain 49291): 8 µg/mL (≈ 19.6 µM); MIC E. coli (TolC mutant) (E. coli (TolC mutant)): >128 µg/mL
2 | C=C1C(=O)O[C@H](c2ccc(OCc3ccccc3)c(OC(C)=O)c2)[C@@H]1c1ccccc1Br (racemic) [Compound 85] | 4 (≈ 8.11 µM) | 4 (≈ 8.11 µM) | 4 (≈ 8.11 µM) | 2 (≈ 4.05 µM) | 4 (≈ 8.11 µM) | 4 (≈ 8.11 µM) | 4 (≈ 8.11 µM) | 4 (≈ 8.11 µM) | 2 (≈ 4.05 µM) | inactive | >128 | >128 | >128 | >128 | >128 | >128 | >128 | >128 | >128 | did not inhibit | MIC (L. crispatus; L. crispatus HM 375): >128 µg/mL; MIC (L. crispatus; L. crispatus HM 421): >128 µg/mL; MIC E. faecalis (VRE) (E. faecalis (VRE)): >128 µg/mL; MIC (Ba. dorsei; Ba. dorsei HM 29): >128 µg/mL; MIC (Ba. dorsei; Ba. dorsei HM 717): >128 µg/mL; MIC Clostridioides difficile (Clostridioides difficile): 4 µg/mL (≈ 8.11 µM); MIC MRSA (USA300) (MRSA (USA300)): >128 µg/mL; MIC ([2]; CD strain 81): 4 µg/mL (≈ 8.11 µM); MIC ([2]; CD strain 82): 2 µg/mL (≈ 4.05 µM); MIC ([2]; CD strain 83): 4 µg/mL (≈ 8.11 µM); MIC ([2]; CD strain 84): 4 µg/mL (≈ 8.11 µM); MIC ([2]; CD strain 85): 2 µg/mL (≈ 4.05 µM); MIC ([2]; CD strain 86): 4 µg/mL (≈ 8.11 µM); MIC ([2]; CD strain 87): 2 µg/mL (≈ 4.05 µM); MIC ([2]; CD strain 90): 2 µg/mL (≈ 4.05 µM); MIC ([2]; CD strain 49279): 4 µg/mL (≈ 8.11 µM); MIC ([2]; CD strain 49287): 2 µg/mL (≈ 4.05 µM); MIC ([2]; CD strain 49291): 2 µg/mL (≈ 4.05 µM); MIC E. coli (TolC mutant) (E. coli (TolC mutant)): >128 µg/mL
